# Experiments:
# [1] = system: cyclin D1; test: Cyclin D1 expression (qRT-PCR, western blot), A549; assay type: cell-based, human
# Method: FIGS. 5A-5G illustrate NGI-1 induces G1 arrest and senescence in EGFR addicted tumor cells. FIG. 5A illustrates cell cycle distribution of PC9 cells after 24 h NGI-1 treatment for 24 h determined by flow cytometry. […] FIG. 5B illustrates cell cycle distribution of A549 cells after 24 h NGI-1 treatment for 24 h determined by flow cytometry. FIG. 5C illustrates western blot time course of cyclin D1 expression in PC9 and A549 cells after NGI-1 treatment. FIG. 5D illustrates quantitative real-time PCR analysis of PC9 and A549 cells. A time course of cyclin D1 expression levels relative to GAPDH is represented. […] FIG. 5F illustrates senescence of PC9 cells explored by: cell autofluorescence, measured by flow cytometry using a detector for PE/YFP; lipofuscin accumulation, detected by confocal laser scanning microscopy using an excitation laser of 405 nm with acquired signals from spectrums of yellow 575-620 nm; and morphology changes, enlarged vs. flattened. […] Significance was calculated using a T test (*p<0.05. **p<0.01). FIG. 5G illustrates senescence of A549 cells explored by: cell autofluorescence, measured by flow cytometry using a detector for PE/YFP; lipofuscin accumulation, detected by confocal laser scanning microscopy using an excitation laser of 405 nm with acquired signals from spectrums of yellow 575-620 nm; and morphology changes, enlarged vs. flattened. […]
# [2] = system: H1581 cells; test: MTT proliferation assay, H1581; assay type: cell-based; settings: H1581, 10 μM NGI-1, 5 d
# Method: FIGS. 4A-4H illustrate the finding that NGI-1 blocks RTK driven proliferation. FIG. 4A illustrates western blot analysis of EGFR phosphorylation (Y1173) and gel mobility in PC9 (EGFR-mutant) and A549 (k-ras mutant) NSCLC cells after 10 μM NGI-1 treatment for 24 h. […] Actin expression was used as a control for protein loading. FIG. 4B illustrates MTT assays results of PC9 following treatment with 10 μM NGI-1 or 1 μM tunicamycin for a total of 5 d. Relative proliferation id reported in fold increase from day 0. FIG. 4C illustrates MTT assays results of A549 following treatment with 10 μM NGI-1 or 1 μM tunicamycin for a total of 5 d. Relative proliferation id reported in fold increase from day 0. FIG. 4D illustrates protein phosphorylation profiles of PC9 cells analyzed by phospho-protein array to assess the response of PC9 to 10 μM NGI-1 for 24 h. FIG. 4E illustrates protein phosphorylation profiles of A549 cells analyzed by phospho-protein array to assess the response of A549 to 10 μM NGI-1 for 24 h. […]
# Growth rates were determined by CellTiter 96 NonRadioactive Cell Proliferation Assay (Promega; Madison, Wis. USA) according to the manufacturer's directions. […] Cell numbers were estimated after 0, 3, and 5 days by adding MTT [(3-(4,5-Dimethylthiazol-2-yl)-2,5-diphenyltetrazolium bromide] reagent to the wells 4 hours before taking the spectrophotometric reading (absorbance at 570 nm).
compound,measurement,setting,value
"Cc1cnc(NC(=O)c2cc(S(=O)(=O)N(C)C)ccc2N2CCCC2)s1 [NGI-1, 5-(N,N-Dimethylsulfamoyl)-N-(5-methylthiazol-2-yl)-2-(pyrrolidin-1-yl)benzamide]",cyclin D1 mRNA and protein levels,[1],not significantly affected
same,"effect on proliferation, MTT",[2],blocked proliferation of the H1581 cell line
